Where a name gives a salt, the structure may show the parent alone.
Tested on: GT-1a pRLuc H771b 75 S/I subgenomic replicon cell line
Test: HCV GT-1a replicon luciferase reporter assay
Type: cell-based
Details: Hepatitis C virus, GT1A, 72 h, read-out: GT-1a (IC50) (nM)
Text: Determination of compounds HCV GT1b inhibitory replicon activity using the replicon luciferase reporter assay
The 2209-23 cell line was developed at Roche by stable transfection of the hepatoma cell line Huh-7 with a GT-1b Con1 subgenomic bicistronic replicon as previously described. Subgenomic replicon cell line was established in cured Huh7 cells, obtained from R. Bartenschlager (J. Virol. 2003 March; 77 (5):3007-19) The GT-1a H77 subgenomic replicon vector pRLuc H771b 75 S/I, was created by replacing the non structural region of the GT-1b Con1 subgenomic replicon by the one of the H77 strain, except for the first 75 amino acids of the NS3 protein that are from GT-1b Con1 strain. (J. Virol. 2001 77:5352-59) The GT-1a pRLuc H771b 75 S/I subgenomic replicon cell line was established in cured Huh7 cells, obtained from R. Bartenschlager. (J. Virol. 2003 March; 77 (5):3007-19)
All the subgenomic replicon cell lines were cultured in Dulbecco's Modified Eagle Medium (DMEM-Glutamax™-I; Invitrogen Cat #10569-010). The medium was supplemented with 10% Fetal Bovine Serum (Invitrogen Cat #10082-147), 1% penicillin/streptomycin (Mediatech Cat #30-002-CI) and 500 μg/ml of G418 (Mediatech Cat #30-234-CI). Cells were maintained at 37° C. in a humidified 5% CO2 atmosphere.
2209-23 cells were plated at a cell density of 5000 cells per well in 96 well plates (Becton Dickinson, Cat #35 3296). Cells were plated in 90 μl of Dulbecco's Modified Eagle Medium (DMEM-Glutamax™-I), (Invitrogen Cat #10569-010) medium was supplemented with 5% Fetal Bovine Serum (Invitrogen Cat #10082-147), 1% penicillin/streptomycin (Mediatech Cat #30-002-CI). The pRluc H771b 75 S/I cells were plated in 96-well plate at 3000 cells/well in DMEM-Glutamax™-I containing 5% FBS and 1% penicillin/streptomycin in 90 μl final volume. Cells were allowed to equilibrate for 24 hours at 37° C. and 5% CO2 at which time compounds were added. Compounds (or medium as a control) were added 24 hours post-plating in 3 fold dilutions at a final DMSO concentration of 1% in 10 ul volume. Renilla luciferase reporter signal was read 72 hours after addition of compounds using the Renilla Luciferase Assay System (Promega, cat #E2820). EC50 values were defined as the compound concentration at which a 50% reduction in the levels of renilla luciferase reporter was observed as compared to control samples in the absence of compound and was determined by non-linear fitting of compound dose-response data. The EC50 was approximated if maximum percentage inhibition was less than 90% and more than 70%.

`COC(=O)N[C@H]1CCc2cccc3c2N(C1=O)[C@H](c1ncc(-c2ccc(-c4ccc(-c5ccc6nc([C@@H]7CC(F)(F)CN7C(=O)[C@@H](NC(=O)OC)C(C)C)[nH]c6c5)cc4)cc2)[nH]1)C3` [Compound I-4, {(2S,5S)-2-[5-(4′-{2-[(S)-4,4-Difluoro-1-((S)-2-methoxycarbonylamino-3-methyl-butyryl)-pyrrolidin-2-yl]-3H-benzoimidazol-5-yl}-biphenyl-4-yl)-1H-imidazol-2-yl]-4-oxo-1,2,4,5,6,7-hexahydro-azepino[3,2,1-hi]indol-5-yl}-carbamic acid methyl ester] showed an IC50 of 4.11 nM.

`COC(=O)N[C@H]1CCc2cccc3c2N(C1=O)[C@H](c1ncc(-c2ccc(-c4ccc(-c5ccc6nc([C@@H]7CCCN7C(=O)[C@@H](NC(=O)OC)C(C)C)[nH]c6c5)nc4)cc2)[nH]1)C3` [Compound I-7, ((2S,5S)-2-{5-[4-(6-{2-[(S)-1-((S)-2-Methoxycarbonylamino-3-methyl-butyryl)-pyrrolidin-2-yl]-3H-benzoimidazol-5-yl}-pyridin-3-yl)-phenyl]-1H-imidazol-2-yl}-4-oxo-1,2,4,5,6,7-hexahydro-azepino[3,2,1-hi]indol-5-yl)-carbamic acid methyl ester] gave an IC50 of 32.2 nM.

In the case of `COC(=O)N[C@H]1CCc2cccc3c2N(C1=O)[C@H](c1ncc(-c2ccc(-c4ccc(-c5cnc([C@@H]6CC7(CN6C(=O)[C@@H](NC(=O)OC)C(C)C)OCCO7)[nH]5)cc4)cc2)[nH]1)C3` [Compound I-8, {(2S,5S)-2-[5-(4′-{2-[(S)-7-((S)-2-Methoxycarbonylamino-3-methyl-butyryl)-1,4-dioxa-7-aza-spiro[4.4]non-8-yl]-3H-imidazol-4-yl}-biphenyl-4-yl)-1H-imidazol-2-yl]-4-oxo-1,2,4,5,6,7-hexahydro-azepino[3,2,1-hi]indol-5-yl}-carbamic acid methyl Ester], the IC50 is reported as 2.54 nM.

For `COC(=O)N[C@H]1CCc2cccc3c2N(C1=O)[C@H](c1nc2ccc(-c4ccc(-c5ccc(-c6cnc([C@@H]7CCCN7C(=O)[C@@H](NC(=O)OC)C(C)C)[nH]6)cc5)nc4)cc2[nH]1)C3` [Compound I-12, ((2S,5S)-2-{6-[6-(4-{2-[(S)-1-((S)-2-Methoxycarbonylamino-3-methyl-butyryl)-pyrrolidin-2-yl]-3H-imidazol-4-yl}-phenyl)-pyridin-3-yl]-1H-benzoimidazol-2-yl}-4-oxo-1,2,4,5,6,7-hexahydro-azepino[3,2,1-hi]indol-5-yl)-carbamic acid methyl ester], the IC50 was 18.6 nM.

For `COC(=O)N[C@H]1CCc2cccc3c2N(C1=O)[C@H](c1nc2ccc(-c4ccc(-c5ccc(-c6cnc([C@@H]7CC(F)(F)CN7C(=O)[C@@H](NC(=O)OC)C(C)C)[nH]6)cc5)nc4)cc2[nH]1)C3` [Compound I-13, ((2S,5S)-2-{6-[6-(4-{2-[(S)-1-((S)-2-Methoxycarbonylamino-3-methyl-butyryl)-4,4-difluoro-pyrrolidin-2-yl]-3H-imidazol-4-yl}-phenyl)-pyridin-3-yl]-1H-benzoimidazol-2-yl}-4-oxo-1,2,4,5,6,7-hexahydro-azepino[3,2,1-hi]indol-5-yl)-carbamic acid methyl ester], the IC50 was 41.8 nM.

Work on `COC(=O)N[C@H]1CCc2cccc3c2N(C1=O)[C@H](c1ncc(-c2cnc(-c4ccc(-c5cnc([C@@H]6CCCN6C(=O)[C@@H](NC(=O)OC)C(C)C)[nH]5)cc4)nc2)[nH]1)C3` [Compound I-15, ((2S,5S)-2-{5-[2-(4-{2-[(S)-1-((S)-2-Methoxycarbonylamino-3-methyl-butyryl)-pyrrolidin-2-yl]-3H-imidazol-4-yl}-phenyl)-pyrimidin-5-yl]-1H-imidazol-2-yl}-4-oxo-1,2,4,5,6,7-hexahydro-azepino[3,2,1-hi]indol-5-yl)-carbamic acid methyl ester] yielded an IC50 of 13.4 nM.

`COC(=O)N[C@H]1CCc2cccc3c2N(C1=O)[C@H](c1ncc(-c2cnc(-c4ccc(-c5cnc([C@@H]6CC(F)(F)CN6C(=O)[C@@H](NC(=O)OC)C(C)C)[nH]5)cc4)nc2)[nH]1)C3` [Compound I-16, ((2S,5S)-2-{5-[2-(4-{2-[(S)-1-((S)-2-Methoxycarbonylamino-3-methyl-butyryl)-4,4-difluoro-pyrrolidin-2-yl]-3H-imidazol-4-yl}-phenyl)-pyrimidin-5-yl]-1H-imidazol-2-yl}-4-oxo-1,2,4,5,6,7-hexahydro-azepino[3,2,1-hi]indol-5-yl)-carbamic acid methyl ester] gave an IC50 of 29.2 nM.

For `COC(=O)N[C@H]1CCc2cccc3c2N(C1=O)[C@H](c1ncc(-c2cnc(-c4ccc5cc(-c6cnc([C@@H]7CCCN7C(=O)[C@@H](NC(=O)OC)C(C)C)[nH]6)ccc5c4)nc2)[nH]1)C3` [Compound I-17, ((2S,5S)-2-{5-[2-(6-{2-[(S)-1-((S)-2-Methoxycarbonylamino-3-methyl-butyryl)-pyrrolidin-2-yl]-3H-imidazol-4-yl}-naphthalen-2-yl)-pyrimidin-5-yl]-1H-imidazol-2-yl}-4-oxo-1,2,4,5,6,7-hexahydro-azepino[3,2,1-hi]indol-5-yl)-carbamic acid methyl ester], the IC50 was 3.2 nM.

For `COC(=O)N[C@H]1CCc2cccc3c2N(C1=O)[C@H](c1ncc(-c2cnc4cc(-c5ccc(-c6cnc([C@@H]7CCCN7C(=O)[C@@H](NC(=O)OC)C(C)C)[nH]6)cc5)ccc4c2)[nH]1)C3` [Compound I-18, ((2S,5S)-2-{5-[7-(4-{2-[(S)-1-((S)-2-Methoxycarbonylamino-3-methyl-butyryl)-pyrrolidin-2-yl]-3H-imidazol-4-yl}-phenyl)-quinolin-3-yl]-1H-imidazol-2-yl}-4-oxo-1,2,4,5,6,7-hexahydro-azepino[3,2,1-hi]indol-5-yl)-carbamic acid methyl ester trifluoacetic acid salt], the IC50 was 21.6 nM.

`COC(=O)N[C@H]1CCc2cccc3c2N(C1=O)[C@H](c1ncc(-c2cnc4cc(-c5ccc(-c6[nH]c([C@@H]7CCCN7C(=O)[C@@H](NC(=O)OC)C(C)C)nc6Cl)cc5)ccc4c2)[nH]1)C3` [Compound I-20, ((2S,5S)-2-{5-[7-(4-{5-Chloro-2-[(S)-1-((S)-2-methoxycarbonylamino-3-methyl-butyryl)-pyrrolidin-2-yl]-3H-imidazol-4-yl}-phenyl)-quinolin-3-yl]-1H-imidazol-2-yl}-4-oxo-1,2,4,5,6,7-hexahydro-azepino[3,2,1-hi]indol-5-yl)-carbamic acid methyl ester trifluroacetic acid, trifluoroacetic acid salt] showed an IC50 of 12 nM.

`COC(=O)N[C@H]1CCc2cccc3c2N(C1=O)[C@H](c1ncc(-c2ccc(-c4ccc5cc(-c6cnc([C@@H]7CCCN7C(=O)[C@@H](NC(=O)OC)C(C)C)[nH]6)ccc5n4)cc2)[nH]1)C3` [Compound I-21, ((2S,5S)-2-{4-[4-(6-{2-[(S)-1-((S)-2-Methoxycarbonylamino-3-methyl-butyryl)-pyrrolidin-2-yl]-1H-imidazol-4-yl}-quinolin-2-yl)-phenyl]-1H-imidazol-2-yl}-4-oxo-1,2,4,5,6,7-hexahydro-azepino[3,2,1-hi]indol-5-yl)-carbamic acid methyl ester trifluroacetic acid, trifluoroacetic acid salt] showed an IC50 of 0.395 nM.

Work on `COC(=O)N[C@H]1CCc2cccc3c2N(C1=O)[C@H](c1ncc(-c2ccc4nc(-c5ccc(-c6cnc([C@@H]7CCCN7C(=O)[C@@H](NC(=O)OC)C(C)C)[nH]6)cc5)ccc4c2)[nH]1)C3` [Compound I-22, ((2S,5S)-2-{5-[2-(4-{2-[(S)-1-((S)-2-Methoxycarbonylamino-3-methyl-butyryl)-pyrrolidin-2-yl]-1H-imidazol-4-yl}-phenyl)-quinolin-6-yl]-1H-imidazol-2-yl}-4-oxo-1,2,4,5,6,7-hexahydro-azepino[3,2,1-hi]indol-5-yl)-carbamic acid methyl ester trifluroacetic acid, trifluoroacetic acid salt] yielded an IC50 of 1.45 nM.

Work on `COC(=O)N[C@H]1CCc2cccc3c2N(C1=O)[C@H](c1ncc(-c2ccc(-c4ccc5cc(-c6cnc([C@@H]7CCCN7C(=O)[C@@H](NC(=O)OC)C(C)C)[nH]6)ccc5c4)nc2)[nH]1)C3` [Compound I-23, ((2S,5S)-2-{4-[6-(6-{2-[(S)-1-((S)-2-Methoxycarbonylamino-3-methyl-butyryl)pyrrolidin-2-yl]-3H-imidazol-4-yl}-naphthalen-2-yl)-pyridin-3-yl]-1Himidazol-2-yl}-4-oxo-1,2,4,5,6,7-hexahydro-azepino[3,2,1-hi]indol-5-yl)-carbamic acid methyl ester di-trifluoroacetic acid salt] yielded an IC50 of 0.767 nM.
